# How the values were obtained:
# MEK1 = MEK1 (Homo sapiens (Human), UniProt Q02750); assay: MEK family profiling ADP-Glo, MEK1; format: biochemical; conditions: Erk2 substrate; 0.6 μM ATP; read-out: IC50 MEK isoform 1
# MEK2 [1] = target: T1, MEK2 (Homo sapiens (Human), UniProt P36507); assay: MEK family profiling ADP-Glo, MEK2; format: biochemical; conditions: Erk2 substrate; 0.6 μM ATP; read-out: IC50 MEK isoform 2
# MEK6 = MEK6 (Homo sapiens (Human), UniProt P52564); assay: MEK family profiling ADP-Glo, MEK6; format: biochemical; conditions: p38α substrate; 0.6 μM ATP; read-out: IC50 MEK isoform 6
# AAK1 = AAK1 (Homo sapiens (Human), UniProt Q2M2I8); assay: KINOMEscan binding assay; conditions: percent of control
# [2] = target: ABL1(T3151)-phosphorylated (Homo sapiens (Human), UniProt P00519, T315I); assay: KINOMEscan binding assay; conditions: percent of control
# ABL1-phophorylated = ABL1-phophorylated (Homo sapiens (Human), UniProt P00519); assay: KINOMEscan binding assay; conditions: percent of control
# ABL2 = ABL2 (Homo sapiens (Human), UniProt P42684); assay: KINOMEscan binding assay; conditions: percent of control
# CAMK4 = CAMK4 (Homo sapiens (Human), UniProt Q16566); assay: KINOMEscan binding assay; conditions: percent of control
# CDC2L1 = CDC2L1 (Homo sapiens (Human), UniProt P21127); assay: KINOMEscan binding assay; conditions: percent of control
# CHEK2 = CHEK2 (Homo sapiens (Human), UniProt O96017); assay: KINOMEscan binding assay; conditions: percent of control
# [3] = target: (Homo sapiens (Human), UniProt P49761); assay: KINOMEscan binding assay; conditions: C;L3; percent of control
# CSNK1G1 = CSNK1G1 (Homo sapiens (Human), UniProt Q9HCP0); assay: KINOMEscan binding assay; conditions: percent of control
# [4] = target: EGFR(L747-S752DEL, P753S) (Homo sapiens (Human), UniProt P00533, DEL747-752/P753S); assay: KINOMEscan binding assay; conditions: percent of control
# EPHA2 = EPHA2 (Homo sapiens (Human), UniProt P29317); assay: KINOMEscan binding assay; conditions: percent of control
# EPHB4 = EPHB4 (Homo sapiens (Human), UniProt P54760); assay: KINOMEscan binding assay; conditions: percent of control
# ERK2 = ERK2 (Homo sapiens (Human), UniProt P28482); assay: KINOMEscan binding assay; conditions: percent of control
# ERK2, sequence (P28482 whole entry): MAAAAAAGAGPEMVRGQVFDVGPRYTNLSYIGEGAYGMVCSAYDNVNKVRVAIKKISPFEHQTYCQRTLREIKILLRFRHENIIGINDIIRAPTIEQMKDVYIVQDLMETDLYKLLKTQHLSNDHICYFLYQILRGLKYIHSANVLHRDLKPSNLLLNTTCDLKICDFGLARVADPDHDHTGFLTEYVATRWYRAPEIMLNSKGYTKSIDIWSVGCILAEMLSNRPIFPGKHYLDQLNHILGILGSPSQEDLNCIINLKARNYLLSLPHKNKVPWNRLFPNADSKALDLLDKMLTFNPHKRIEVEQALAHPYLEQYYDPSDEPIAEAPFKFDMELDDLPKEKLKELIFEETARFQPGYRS
# FGFR1 = FGFR1 (Homo sapiens (Human), UniProt P11362); assay: KINOMEscan binding assay; conditions: percent of control
# FGFR1, sequence (P11362 22-822): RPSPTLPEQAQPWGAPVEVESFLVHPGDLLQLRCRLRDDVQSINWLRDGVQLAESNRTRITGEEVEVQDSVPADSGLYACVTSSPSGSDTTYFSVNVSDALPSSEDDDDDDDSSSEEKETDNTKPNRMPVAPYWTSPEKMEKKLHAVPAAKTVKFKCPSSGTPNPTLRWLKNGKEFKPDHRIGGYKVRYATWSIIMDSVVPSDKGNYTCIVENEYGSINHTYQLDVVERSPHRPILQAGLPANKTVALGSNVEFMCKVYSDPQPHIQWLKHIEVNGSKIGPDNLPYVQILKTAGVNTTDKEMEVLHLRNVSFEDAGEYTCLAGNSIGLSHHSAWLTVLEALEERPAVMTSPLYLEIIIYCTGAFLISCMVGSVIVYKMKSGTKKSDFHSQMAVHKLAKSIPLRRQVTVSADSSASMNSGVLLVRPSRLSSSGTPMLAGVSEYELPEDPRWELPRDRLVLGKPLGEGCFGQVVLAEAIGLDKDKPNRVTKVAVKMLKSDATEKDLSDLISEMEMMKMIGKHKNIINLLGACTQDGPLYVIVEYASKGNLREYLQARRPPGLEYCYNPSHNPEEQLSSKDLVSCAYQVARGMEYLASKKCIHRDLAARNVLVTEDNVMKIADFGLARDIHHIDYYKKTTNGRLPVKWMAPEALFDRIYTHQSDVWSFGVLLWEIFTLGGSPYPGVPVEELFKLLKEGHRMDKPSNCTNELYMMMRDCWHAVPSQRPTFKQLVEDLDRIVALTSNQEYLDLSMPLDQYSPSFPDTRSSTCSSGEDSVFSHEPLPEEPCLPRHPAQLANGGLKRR
# HIPK1 = HIPK1 (Homo sapiens (Human), UniProt Q86Z02); assay: KINOMEscan binding assay; conditions: percent of control
# IKK-ALPHA = IKK-ALPHA (Homo sapiens (Human), UniProt O15111); assay: KINOMEscan binding assay; conditions: percent of control
# IKK-EPSILON = IKK-EPSILON (Homo sapiens (Human), UniProt Q14164); assay: KINOMEscan binding assay; conditions: percent of control
# MAP3K4 = MAP3K4 (Homo sapiens (Human), UniProt Q9Y6R4); assay: KINOMEscan binding assay; conditions: percent of control
# MARK4 = MARK4 (Homo sapiens (Human), UniProt Q96L34); assay: KINOMEscan binding assay; conditions: percent of control
# MEK2 [5] = target: T1, MEK2; assay: KINOMEscan binding assay; conditions: percent of control
# MEK3 = MEK3 (Homo sapiens (Human), UniProt P46734); assay: KINOMEscan binding assay; conditions: percent of control
# MLK2 = MLK2 (Homo sapiens (Human), UniProt Q02779); assay: KINOMEscan binding assay; conditions: percent of control
# MLK2, sequence (Q02779 whole entry): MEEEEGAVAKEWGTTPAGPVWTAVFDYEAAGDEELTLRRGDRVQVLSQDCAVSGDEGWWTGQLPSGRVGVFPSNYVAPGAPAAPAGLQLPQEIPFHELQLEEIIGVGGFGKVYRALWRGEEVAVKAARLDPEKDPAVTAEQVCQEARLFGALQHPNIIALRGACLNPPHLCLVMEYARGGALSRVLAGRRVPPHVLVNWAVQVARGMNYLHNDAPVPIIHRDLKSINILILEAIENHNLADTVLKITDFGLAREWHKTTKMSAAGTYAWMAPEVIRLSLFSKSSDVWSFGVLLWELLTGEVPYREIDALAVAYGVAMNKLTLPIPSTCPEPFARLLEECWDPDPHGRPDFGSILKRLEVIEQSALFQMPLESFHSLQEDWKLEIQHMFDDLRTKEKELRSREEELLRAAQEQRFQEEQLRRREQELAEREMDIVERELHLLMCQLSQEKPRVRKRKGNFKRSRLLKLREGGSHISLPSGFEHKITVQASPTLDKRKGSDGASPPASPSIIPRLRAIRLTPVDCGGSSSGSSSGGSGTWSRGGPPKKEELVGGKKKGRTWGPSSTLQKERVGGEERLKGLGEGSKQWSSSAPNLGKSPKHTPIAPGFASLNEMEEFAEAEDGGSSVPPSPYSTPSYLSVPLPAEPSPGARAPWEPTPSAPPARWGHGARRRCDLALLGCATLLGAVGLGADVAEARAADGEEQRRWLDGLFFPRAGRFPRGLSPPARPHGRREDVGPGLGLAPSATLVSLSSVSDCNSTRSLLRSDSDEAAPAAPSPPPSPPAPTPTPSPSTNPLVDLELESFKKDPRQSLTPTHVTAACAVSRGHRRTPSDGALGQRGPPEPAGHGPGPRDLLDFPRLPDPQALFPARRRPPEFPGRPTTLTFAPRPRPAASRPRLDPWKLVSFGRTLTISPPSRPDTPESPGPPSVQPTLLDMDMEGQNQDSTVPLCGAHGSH
# MUSK = MUSK (Homo sapiens (Human), UniProt O15146); assay: KINOMEscan binding assay; conditions: percent of control
# NLK = NLK (Homo sapiens (Human), UniProt Q9UBE8); assay: KINOMEscan binding assay; conditions: percent of control
# PHKG2 = PHKG2 (Homo sapiens (Human), UniProt P15735); assay: KINOMEscan binding assay; conditions: percent of control
# PHKG2, sequence (P15735 whole entry): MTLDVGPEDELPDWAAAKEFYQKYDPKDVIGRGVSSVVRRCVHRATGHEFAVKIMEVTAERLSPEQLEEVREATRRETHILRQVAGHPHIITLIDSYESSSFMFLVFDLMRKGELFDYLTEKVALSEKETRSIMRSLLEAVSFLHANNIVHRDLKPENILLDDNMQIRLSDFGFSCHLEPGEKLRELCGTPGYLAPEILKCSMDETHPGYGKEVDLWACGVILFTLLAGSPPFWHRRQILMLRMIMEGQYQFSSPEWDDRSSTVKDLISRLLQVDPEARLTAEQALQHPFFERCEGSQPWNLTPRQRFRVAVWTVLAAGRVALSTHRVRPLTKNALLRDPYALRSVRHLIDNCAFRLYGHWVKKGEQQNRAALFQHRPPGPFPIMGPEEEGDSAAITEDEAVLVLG
# PIK4CB = PIK4CB (Homo sapiens (Human), UniProt Q9UBF8); assay: KINOMEscan binding assay; conditions: percent of control
# PKN2 = PKN2 (Homo sapiens (Human), UniProt Q16513); assay: KINOMEscan binding assay; conditions: percent of control
# PRKCD = PRKCD (Homo sapiens (Human), UniProt Q05655); assay: KINOMEscan binding assay; conditions: percent of control
# PRKG1 = PRKG1 (Homo sapiens (Human), UniProt Q13976); assay: KINOMEscan binding assay; conditions: percent of control
# PRKG1, sequence (Q13976 whole entry): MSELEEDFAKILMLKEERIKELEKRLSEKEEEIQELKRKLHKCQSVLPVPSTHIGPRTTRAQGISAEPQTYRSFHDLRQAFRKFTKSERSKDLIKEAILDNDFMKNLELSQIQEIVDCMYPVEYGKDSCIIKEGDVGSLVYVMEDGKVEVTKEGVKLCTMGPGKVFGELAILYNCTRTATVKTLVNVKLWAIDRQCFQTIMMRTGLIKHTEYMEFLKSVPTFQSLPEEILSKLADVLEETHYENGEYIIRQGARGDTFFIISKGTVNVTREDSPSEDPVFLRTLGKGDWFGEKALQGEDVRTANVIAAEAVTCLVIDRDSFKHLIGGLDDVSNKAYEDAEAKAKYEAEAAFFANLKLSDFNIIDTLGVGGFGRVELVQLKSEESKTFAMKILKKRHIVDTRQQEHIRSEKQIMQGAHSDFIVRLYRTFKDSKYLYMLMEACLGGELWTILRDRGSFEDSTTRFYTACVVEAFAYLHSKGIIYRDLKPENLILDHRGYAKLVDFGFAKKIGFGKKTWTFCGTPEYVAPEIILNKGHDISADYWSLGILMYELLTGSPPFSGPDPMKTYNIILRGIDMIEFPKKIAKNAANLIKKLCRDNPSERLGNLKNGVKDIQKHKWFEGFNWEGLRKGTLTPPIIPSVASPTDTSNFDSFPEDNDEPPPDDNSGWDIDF
# PRP6 = assay: KINOMEscan binding assay; conditions: percent of control
# RAF1 = RAF1 (Homo sapiens (Human), UniProt P04049); assay: KINOMEscan binding assay; conditions: percent of control
# SIK2 = SIK2 (Homo sapiens (Human), UniProt Q9H0K1); assay: KINOMEscan binding assay; conditions: percent of control
# SNARK = SNARK (Homo sapiens (Human), UniProt Q9H093); assay: KINOMEscan binding assay; conditions: percent of control
# TEC = TEC (Homo sapiens (Human), UniProt P42680); assay: KINOMEscan binding assay; conditions: percent of control
# TNIK = TNIK (Homo sapiens (Human), UniProt Q9UKE5); assay: KINOMEscan binding assay; conditions: percent of control
# VEGFR2 = VEGFR2 (Homo sapiens (Human), UniProt P35968); assay: KINOMEscan binding assay; conditions: percent of control
# VEGFR2, sequence (P35968 20-1356): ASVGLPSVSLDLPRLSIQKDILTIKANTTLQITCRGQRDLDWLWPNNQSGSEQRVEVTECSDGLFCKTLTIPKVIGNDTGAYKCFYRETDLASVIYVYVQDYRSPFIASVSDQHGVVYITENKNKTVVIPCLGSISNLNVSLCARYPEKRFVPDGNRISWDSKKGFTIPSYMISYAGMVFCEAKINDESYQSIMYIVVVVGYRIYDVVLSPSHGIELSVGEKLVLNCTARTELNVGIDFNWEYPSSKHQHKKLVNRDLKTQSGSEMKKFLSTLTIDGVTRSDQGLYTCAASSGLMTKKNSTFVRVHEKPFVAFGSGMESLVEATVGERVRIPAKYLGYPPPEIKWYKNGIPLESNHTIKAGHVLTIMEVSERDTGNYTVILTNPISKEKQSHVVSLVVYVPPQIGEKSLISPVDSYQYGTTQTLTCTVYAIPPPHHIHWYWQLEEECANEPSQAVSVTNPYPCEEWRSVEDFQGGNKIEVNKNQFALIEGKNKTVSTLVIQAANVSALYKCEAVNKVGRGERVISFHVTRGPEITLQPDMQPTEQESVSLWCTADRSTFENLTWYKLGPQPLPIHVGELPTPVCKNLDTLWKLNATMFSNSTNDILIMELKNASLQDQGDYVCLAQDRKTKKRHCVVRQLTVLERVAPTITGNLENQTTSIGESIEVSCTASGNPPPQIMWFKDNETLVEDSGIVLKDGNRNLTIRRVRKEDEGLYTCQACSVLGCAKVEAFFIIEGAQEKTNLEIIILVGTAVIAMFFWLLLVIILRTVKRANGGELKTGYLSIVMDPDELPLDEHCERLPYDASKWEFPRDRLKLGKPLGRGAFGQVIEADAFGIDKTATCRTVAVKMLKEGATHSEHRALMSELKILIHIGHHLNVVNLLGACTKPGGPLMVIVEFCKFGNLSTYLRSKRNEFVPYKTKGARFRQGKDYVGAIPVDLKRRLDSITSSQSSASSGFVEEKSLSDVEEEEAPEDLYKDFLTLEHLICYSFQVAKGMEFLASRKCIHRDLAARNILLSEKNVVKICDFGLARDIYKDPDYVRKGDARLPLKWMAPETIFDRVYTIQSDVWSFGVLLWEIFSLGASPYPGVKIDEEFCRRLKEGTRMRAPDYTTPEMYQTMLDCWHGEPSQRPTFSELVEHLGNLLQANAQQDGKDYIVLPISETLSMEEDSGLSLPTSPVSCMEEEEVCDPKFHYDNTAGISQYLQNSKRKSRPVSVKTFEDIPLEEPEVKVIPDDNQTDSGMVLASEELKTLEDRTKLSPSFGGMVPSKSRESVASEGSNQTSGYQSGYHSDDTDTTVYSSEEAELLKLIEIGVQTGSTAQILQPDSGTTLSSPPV
# ZAP70 = ZAP70 (Homo sapiens (Human), UniProt P43403); assay: KINOMEscan binding assay; conditions: percent of control
# panel of 57 kinases = conditions: 10 μM; S(35) criterion
# T1 sequence (P36507 whole entry, canonical isoform): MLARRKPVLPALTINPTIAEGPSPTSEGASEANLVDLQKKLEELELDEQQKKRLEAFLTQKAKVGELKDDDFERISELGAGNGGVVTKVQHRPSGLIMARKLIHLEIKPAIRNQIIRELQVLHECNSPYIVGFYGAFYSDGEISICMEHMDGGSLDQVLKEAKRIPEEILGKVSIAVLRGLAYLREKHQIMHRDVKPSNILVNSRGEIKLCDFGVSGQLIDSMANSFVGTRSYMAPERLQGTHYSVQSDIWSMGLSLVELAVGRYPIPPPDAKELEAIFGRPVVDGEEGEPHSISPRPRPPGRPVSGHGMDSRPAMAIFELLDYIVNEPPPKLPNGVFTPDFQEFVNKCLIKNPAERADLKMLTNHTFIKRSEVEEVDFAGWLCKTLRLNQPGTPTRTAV
compound,measurement,setting,value
"O=C(O)c1cccc(-c2n[nH]c3ccccc23)c1 [Compound 6a, 3-(1H-indazol-3-yl)benzoic Acid]",IC50,MEK1,12 µM
same,IC50,MEK2 [1],> 27 µM
same,IC50,MEK6,10 µM
same,% Ctrl @ 10000 nM,AAK1,87 % Ctrl
same,% Ctrl @ 10000 nM,[2],40 % Ctrl
same,% Ctrl @ 10000 nM,ABL1-phophorylated,86 % Ctrl
same,% Ctrl @ 10000 nM,ABL2,100 % Ctrl
same,% Ctrl @ 10000 nM,CAMK4,100 % Ctrl
same,% Ctrl @ 10000 nM,CDC2L1,100 % Ctrl
same,% Ctrl @ 10000 nM,CHEK2,76 % Ctrl
same,% Ctrl @ 10000 nM,[3],94 % Ctrl
same,% Ctrl @ 10000 nM,CSNK1G1,80 % Ctrl
same,% Ctrl @ 10000 nM,[4],85 % Ctrl
same,% Ctrl @ 10000 nM,EPHA2,92 % Ctrl
same,% Ctrl @ 10000 nM,EPHB4,89 % Ctrl
same,% Ctrl @ 10000 nM,ERK2,96 % Ctrl
same,% Ctrl @ 10000 nM,FGFR1,100 % Ctrl
same,% Ctrl @ 10000 nM,HIPK1,43 % Ctrl
same,% Ctrl @ 10000 nM,IKK-ALPHA,50 % Ctrl
same,% Ctrl @ 10000 nM,IKK-EPSILON,48 % Ctrl
same,% Ctrl @ 10000 nM,MAP3K4,90 % Ctrl
same,% Ctrl @ 10000 nM,MARK4,97 % Ctrl
same,% Ctrl @ 10000 nM,MEK2 [5],60 % Ctrl
same,% Ctrl @ 10000 nM,MEK3,13 % Ctrl
same,% Ctrl @ 10000 nM,MLK2,100 % Ctrl
same,% Ctrl @ 10000 nM,MUSK,100 % Ctrl
same,% Ctrl @ 10000 nM,NLK,97 % Ctrl
same,% Ctrl @ 10000 nM,PHKG2,98 % Ctrl
same,% Ctrl @ 10000 nM,PIK4CB,0 % Ctrl
same,% Ctrl @ 10000 nM,PKN2,100 % Ctrl
same,% Ctrl @ 10000 nM,PRKCD,100 % Ctrl
same,% Ctrl @ 10000 nM,PRKG1,100 % Ctrl
same,% Ctrl @ 10000 nM,PRP6,76 % Ctrl
same,% Ctrl @ 10000 nM,RAF1,100 % Ctrl
same,% Ctrl @ 10000 nM,SIK2,93 % Ctrl
same,% Ctrl @ 10000 nM,SNARK,68 % Ctrl
same,% Ctrl @ 10000 nM,TEC,100 % Ctrl
same,% Ctrl @ 10000 nM,TNIK,65 % Ctrl
same,% Ctrl @ 10000 nM,VEGFR2,20 % Ctrl
same,% Ctrl @ 10000 nM,ZAP70,70 % Ctrl
same,"number of kinases hit, out of 57 tested",panel of 57 kinases,5
"O=C(O)c1ccc(-c2n[nH]c3cc(F)ccc23)cc1 [Compound 6ff, 4-(6-fluoro-2H-indazol-3-yl)benzoic Acid]",IC50,MEK1,15 µM
same,IC50,MEK2 [1],> 27 µM
same,IC50,MEK6,11 µM
same,% Ctrl @ 10000 nM,AAK1,55 % Ctrl
same,% Ctrl @ 10000 nM,[2],12 % Ctrl
same,% Ctrl @ 10000 nM,ABL1-phophorylated,73 % Ctrl
same,% Ctrl @ 10000 nM,ABL2,100 % Ctrl
same,% Ctrl @ 10000 nM,CAMK4,100 % Ctrl
same,% Ctrl @ 10000 nM,CDC2L1,100 % Ctrl
same,% Ctrl @ 10000 nM,CHEK2,39 % Ctrl
same,% Ctrl @ 10000 nM,[3],100 % Ctrl
same,% Ctrl @ 10000 nM,CSNK1G1,90 % Ctrl
same,% Ctrl @ 10000 nM,[4],81 % Ctrl
same,% Ctrl @ 10000 nM,EPHA2,100 % Ctrl
same,% Ctrl @ 10000 nM,EPHB4,100 % Ctrl
same,% Ctrl @ 10000 nM,ERK2,100 % Ctrl
same,% Ctrl @ 10000 nM,FGFR1,99 % Ctrl
same,% Ctrl @ 10000 nM,HIPK1,48 % Ctrl
same,% Ctrl @ 10000 nM,IKK-ALPHA,14 % Ctrl
same,% Ctrl @ 10000 nM,IKK-EPSILON,43 % Ctrl
same,% Ctrl @ 10000 nM,MAP3K4,100 % Ctrl
same,% Ctrl @ 10000 nM,MARK4,86 % Ctrl
same,% Ctrl @ 10000 nM,MEK2 [5],61 % Ctrl
same,% Ctrl @ 10000 nM,MEK3,1.6 % Ctrl
same,% Ctrl @ 10000 nM,MLK2,95 % Ctrl
same,% Ctrl @ 10000 nM,MUSK,65 % Ctrl
same,% Ctrl @ 10000 nM,NLK,99 % Ctrl
same,% Ctrl @ 10000 nM,PHKG2,89 % Ctrl
same,% Ctrl @ 10000 nM,PIK4CB,28 % Ctrl
same,% Ctrl @ 10000 nM,PKN2,95 % Ctrl
same,% Ctrl @ 10000 nM,PRKCD,100 % Ctrl
same,% Ctrl @ 10000 nM,PRKG1,100 % Ctrl
same,% Ctrl @ 10000 nM,PRP6,52 % Ctrl
same,% Ctrl @ 10000 nM,RAF1,100 % Ctrl
same,% Ctrl @ 10000 nM,SIK2,100 % Ctrl
same,% Ctrl @ 10000 nM,SNARK,53 % Ctrl
same,% Ctrl @ 10000 nM,TEC,100 % Ctrl
same,% Ctrl @ 10000 nM,TNIK,3.6 % Ctrl
same,% Ctrl @ 10000 nM,VEGFR2,3.5 % Ctrl
same,% Ctrl @ 10000 nM,ZAP70,73 % Ctrl
same,"number of kinases hit, out of 57 tested",panel of 57 kinases,12

# Source: patent US11370770B2, “3-arylindazoles as selective MEK4 inhibitors” (priority 2019, dated 2022)
